From patent US20250136576A1, “Heterocyclic Compounds and Uses Thereof” (ACEA Therapeutics, Inc., priority 2021, published 2025)

system: KM12-luc cells; assay: Cell proliferation and growth inhibition assay (CCK-8) in KM12-luc; type: cell-based; conditions: KM12-Luc, 72 h, KM12-luc cells, treated with test compounds for 72 hrs, CCK-8 viability; read-out: NTRK IC50 in KM12-luc
Description: MV-4-11 and H1975 cells were obtained from the American Type Culture Collection and KM12-luc cells were obtained from JCRB Cell Bank. All cell lines were maintained at 37° C. with 5% C02, in media supplemented with 10% fetal bovine serum and penicillin (100 units/mL) and streptomycin (100 μg/mL). MV-4-11 cells were maintained in Iscove's Modified Dubecco's Medium, H1975 cells were cultured with RPMI 1640 media, and KM12-luc cells were maintained in Dulbecco's Modification of Eagle's Medium. CCK-8 reagent was obtained from Yeasen. Cell proliferation was assessed by CCK-8 assay (Yeasen) per the manufacturer's instructions. […] Cell viability was assayed by incubating the cells with CCK-8 reagent for 1-4 hrs. Absorbance was measured at OD450 using the Beckman DTX880. The data was calculated using GraphPad Prism version 6.01. The IC50 values were fitted using a non-linear regression model with a sigmoidal dose response.

**Q.** With `CC(=O)Nc1cc(Nc2ncc(Cl)c(-c3c[nH]c4ccccc34)n2)ccc1NC(=O)CCN(C)C` [Compound 394a, N-(2-acetamido-4-((5-chloro-4-(1H-indol-3-yl)pyrimidin-2-yl)amino)phenyl)-3-(dimethylamino)propanamide] as the compound, how does the IC50 read?
**A.** 29.1 nM

**Q.** Which IC50 does the source give for `CN(C)[C@H]1CCN(c2ccc(Nc3ncc(Cl)c(-c4cn(C)c5c(F)cccc45)n3)cc2N)C1` [Compound S-420, (S)—N^1-(5-chloro-4-(7-fluoro-1-methyl-1H-indol-3-yl)pyrimidin-2-yl)-4-(3-(dimethylamino)pyrrolidin-1-yl)benzene-1,3-diamine] here?
**A.** 261 nM

**Q.** `CN(C)CCN(C)c1cc(F)c(Nc2ncc(C(F)(F)F)c(-c3c[nH]c4c(F)cccc34)n2)cc1N` [Compound 339, N^1-(2-(dimethylamino)ethyl)-5-fluoro-N^4-(4-(7-fluoro-1H-indol-3-yl)-5-(trifluoromethyl)pyrimidin-2-yl)-N^1-methylbenzene-1,2,4-triamine] was tested. Which IC50 did it give?
**A.** 75.2 nM

**Q.** With `CC(=O)Nc1cc(Nc2ncc(C(F)(F)F)c(-c3c[nH]c4c(C)cccc34)n2)ccc1N(CCN(C)C)C(C)=O` [Compound 363, N-(2-acetamido-4-((4-(7-methyl-1H-indol-3-yl)-5-(trifluoromethyl)pyrimidin-2-yl)amino)phenyl)-N-(2-(dimethylamino)ethyl)acetamide] as the compound, how does the IC50 read?
**A.** 93.4 nM

**Q.** For `COc1cnc(Nc2ccc(N(CCN(C)C)C(C)=O)c(NC(C)=O)c2)nc1-c1c[nH]c2c(OC)cccc12` [Compound 286, N-(2-acetamido-4-((5-methoxy-4-(7-methoxy-1H-indol-3-yl)pyrimidin-2-yl)amino)phenyl)-N-(2-(dimethylamino)ethyl)acetamide], which IC50 is on record?
**A.** 14.6 nM

**Q.** `Cc1cccc2c(-c3nc(Nc4ccc(N5CC[C@@H](N(C)C)C5)c(N)c4)ncc3Cl)cn(C)c12` [Compound R-431, (R)—N^1-(5-chloro-4-(1,7-dimethyl-1H-indol-3-yl)pyrimidin-2-yl)-4-(3-(dimethylamino)pyrrolidin-1-yl)benzene-1,3-diamine] was tested. Which IC50 did it give?
**A.** 31.8 nM

**Q.** For `CC(=O)Nc1cc(Nc2ncc(F)c(-c3cn(C)c4cc(F)ccc34)n2)ccc1N(C)CCN(C)C` [Compound 267, N-(2-((2-(dimethylamino)ethyl)(methyl)amino)-5-((5-fluoro-4-(6-fluoro-1-methyl-1H-indol-3-yl)pyrimidin-2-yl)amino)phenyl)acetamide], which IC50 is on record?
**A.** 303 nM

**Q.** `CCN(CCN(C)C)c1ccc(Nc2ncc(C(F)(F)F)c(-c3cn(C)c4ccccc34)n2)cc1NC(C)=O` [Compound 309, N-(2-((2-(dimethylamino)ethyl)(ethyl)amino)-5-((4-(1-methyl-1H-indol-3-yl)-5-(trifluoromethyl)pyrimidin-2-yl)amino)phenyl)acetamide] was tested. Which IC50 did it give?
**A.** 135 nM

**Q.** Which IC50 does the source give for `CC(=O)Nc1cccc(Oc2nc(Nc3ccc(N(C)CCN(C)C)c(F)c3)nc3[nH]ccc23)c1` [Compound 181a, N-(3-((2-((4-((2-(dimethylamino)ethyl)(methyl)amino)-3-fluorophenyl)amino)-7H-pyrrolo[2,3-d]pyrimidin-4-yl)oxy)phenyl)acetamide] here?
**A.** > 10000 nM

**Q.** How did the IC50 turn out when `COc1cnc(Nc2ccc(OCCN(C)C)c(NC(C)=O)c2)nc1-c1cn(C)c2c(C)cccc12` [Compound 285, N-(5-((4-(1,7-dimethyl-1H-indol-3-yl)-5-methoxypyrimidin-2-yl)amino)-2-(2-(dimethylamino)ethoxy)phenyl)acetamide] was run?
**A.** 99.6 nM

**Q.** Which IC50 does the source give for `COc1cnc(Nc2ccc(N(C)CCN(C)C)c(NCC(F)(F)F)c2)nc1-c1cn(C)c2ccccc12` [Compound 276, N^1-(2-(dimethylamino)ethyl)-N^4-(5-methoxy-4-(1-methyl-1H-indol-3-yl)pyrimidin-2-yl)-N^1-methyl-N^2-(2,2,2-trifluoroethyl)benzene-1,2,4-triamine] here?
**A.** 679 nM

**Q.** With `CN1CCN(c2ccc(C(=O)Nc3c[nH]c4ccc(Nc5cc(F)cc(F)c5)cc34)c(NC3CCOCC3)c2)CC1` [Compound 497, N-(5-((3,5-difluorophenyl)amino)-1H-indol-3-yl)-4-(4-methylpiperazin-1-yl)-2-((tetrahydro-2H-pyran-4-yl)amino)benzamide] as the compound, how does the IC50 read?
**A.** 4030 nM

**Q.** For `CC(=O)Nc1cc(Nc2nc(-c3cn(C)c4ccccc34)c3c(F)c[nH]c3n2)ccc1N(C)CCN(C)C` [Compound 253, N-(2-((2-(dimethylamino)ethyl)(methyl)amino)-5-((5-fluoro-4-(1-methyl-1H-indol-3-yl)-7H-pyrrolo[2,3-d]pyrimidin-2-yl)amino)phenyl)acetamide], which IC50 is on record?
**A.** 97.5 nM

**Q.** With `COc1cccc2c1c(-c1nc(Nc3ccc(N(C)CCN(C)C)c(NC(C)=O)c3)ncc1F)cn2C` [Compound 271, N-(2-((2-(dimethylamino)ethyl)(methyl)amino)-5-((5-fluoro-4-(4-methoxy-1-methyl-1H-indol-3-yl)pyrimidin-2-yl)amino)phenyl)acetamide] as the compound, how does the IC50 read?
**A.** 1480 nM

**Q.** Which IC50 does the source give for `CCC(=O)Nc1cc(Nc2nc(-c3c[nH]c4cc(F)ccc34)ncc2C(F)(F)F)ccc1N(CC)CCN(C)C` [Compound 330b, N-(2-((2-(dimethylamino)ethyl)(ethyl)amino)-5-((2-(6-fluoro-1H-indol-3-yl)-5-(trifluoromethyl)pyrimidin-4-yl)amino)phenyl)propionamide] here?
**A.** > 3330 nM

**Q.** How did the IC50 turn out when `CN(C)CCN(C)c1ccc(Nc2nc(-c3cn(C)c4ccccc34)c3cc[nH]c3n2)cc1S(C)(=O)=O` [Compound 206, N^1-(2-(dimethylamino)ethyl)-N^1-methyl-N^4-(4-(1-methyl-1H-indol-3-yl)-7H-pyrrolo[2,3-d]pyrimidin-2-yl)-2-(methylsulfonyl)benzene-1,4-diamine] was run?
**A.** 176 nM

**Q.** For `C=CC(=O)Nc1cc(Nc2nc(-c3cn(C)c4ccccc34)c3cc[nH]c3n2)ccc1N(CC)CCN(C)C` [Compound 212a, N-(2-((2-(dimethylamino)ethyl)(ethyl)amino)-5-((4-(1-methyl-1H-indol-3-yl)-7H-pyrrolo[2,3-d]pyrimidin-2-yl)amino)phenyl)acrylamide], which IC50 is on record?
**A.** 62.7 nM

**Q.** `CCN(CCN(C)C)c1c(F)cc(Nc2ncc(Cl)c(-c3cn(C)c4ccccc34)n2)cc1NC(C)=O` [Compound 398, N-(5-((5-chloro-4-(1-methyl-1H-indol-3-yl)pyrimidin-2-yl)amino)-2-((2-(dimethylamino)ethyl)(ethyl)amino)-3-fluorophenyl)acetamide] was tested. Which IC50 did it give?
**A.** 196 nM

**Q.** Which IC50 does the source give for `CCC(=O)Nc1cccc(Nc2ncc(Cl)c(Nc3ccc(C4CCCNC4)cc3OC)n2)c1` (stereo not shown) [Compound 164, N-(3-((5-chloro-4-((2-methoxy-4-(piperidin-3-yl)phenyl)amino)pyrimidin-2-yl)amino)phenyl)propionamide] here?
**A.** 50.5 nM

**Q.** Which IC50 does the source give for `CN(C)CCN(C)c1ccc(Nc2ncc(F)c(-c3cn(C)c4ccccc34)n2)cc1N` [Compound 262, N^1-(2-(dimethylamino)ethyl)-N^4-(5-fluoro-4-(1-methyl-1H-indol-3-yl)pyrimidin-2-yl)-N-methylbenzene-1,2,4-triamine] here?
**A.** 966 nM

**Q.** Which IC50 does the source give for `CN(C)CCN(C)c1ccc(Nc2ncc(C(F)(F)F)c(-c3c[nH]c4ccc(F)cc34)n2)cc1N` [Compound 322, N^1-(2-(dimethylamino)ethyl)-N^4-(4-(5-fluoro-1H-indol-3-yl)-5-(trifluoromethyl)pyrimidin-2-yl)-N^1-methylbenzene-1,2,4-triamine] here?
**A.** 8.3 nM

**Q.** For `CCN(CCN(C)C)c1c(F)cc(Nc2ncc(Cl)c(-c3c[nH]c4ccccc34)n2)cc1NC(C)=O` [Compound 443, N-(5-((5-chloro-4-(1H-indol-3-yl)pyrimidin-2-yl)amino)-2-((2-(dimethylamino)ethyl) (ethyl)amino)-3-fluorophenyl)acetamide], which IC50 is on record?
**A.** 33.3 nM

**Q.** How did the IC50 turn out when `COc1cccc2c(-c3nc(Nc4ccc(OCCN(C)C)c(NC(C)=O)c4)ncc3C(F)(F)F)cn(C)c12` [Compound 388, N-(2-(2-(dimethylamino)ethoxy)-5-((4-(7-methoxy-1-methyl-1H-indol-3-yl)-5-(trifluoromethyl)pyrimidin-2-yl)amino)phenyl)acetamide] was run?
**A.** 44.8 nM

**Q.** `CC(=O)Nc1cc(Nc2ncc(Cl)c(-c3cn(C)c4ccccc34)n2)ccc1NC(=O)CN(C)C` [Compound 407, N-(2-acetamido-4-((5-chloro-4-(1-methyl-1H-indol-3-yl)pyrimidin-2-yl)amino)phenyl)-2-(dimethylamino)acetamide] was tested. Which IC50 did it give?
**A.** 44.4 nM

**Q.** For `COc1c(N)nc(Nc2ccc(N(C)CCN(C)C)c(N)c2)nc1-c1cn(C)c2ccccc12` [Compound 294, N^4-(4-amino-5-methoxy-6-(1-methyl-1H-indol-3-yl)pyrimidin-2-yl)-N^1-(2-(dimethylamino)ethyl)-N^1-methylbenzene-1,2,4-triamine], which IC50 is on record?
**A.** 167 nM

same assay, conditions: KM12-Luc, 72 h, read-out: NTRK IC50 in KM12-luc

**Q.** With `CCNc1cc(Nc2nc(-c3cn(C)c4ccc(F)cc34)c3cc[nH]c3n2)ccc1N(CC)CCN(C)C` [Compound 227d, N^1-(2-(dimethylamino)ethyl)-N^1,N^2-diethyl-N^4-(4-(5-fluoro-1-methyl-1H-indol-3-yl)-7H-pyrrolo[2,3-d]pyrimidin-2-yl)benzene-1,2,4-triamine] as the compound, how does the IC50 read?
**A.** 2010 nM

same assay, conditions: KM12-luc cells, treated with test compounds for 72 hrs, CCK-8 viability; read-out: NTRK IC50 in KM12-luc

**Q.** With `Cc1cccc2c(-c3nc(Nc4ccc(N5CC[C@H](N(C)C)C5)c(N)c4)ncc3Cl)cn(C)c12` [Compound S-431, (S)—N-(5-chloro-4-(1,7-dimethyl-1H-indol-3-yl)pyrimidin-2-yl)-4-(3-(dimethylamino)pyrrolidin-1-yl)benzene-1,3-diamine] as the compound, how does the IC50 read?
**A.** 39.6 nM

**Q.** Which IC50 does the source give for `COc1cccc2c(-c3nc(Nc4ccc(N5CC[C@@H](N(C)C)C5)c(N)c4)ncc3Cl)cn(C)c12` [Compound R-414, (R)—N^1-(5-chloro-4-(7-methoxy-1-methyl-1H-indol-3-yl)pyrimidin-2-yl)-4-(3-(dimethylamino)pyrrolidin-1-yl)benzene-1,3-diamine] here?
**A.** 12.4 nM
